Measurements published in patent US5677336A, “Non-steroid androgen receptor antagonist compounds and methods” (Ligand Pharmaceuticals Incorporated, priority 1993, dated 1997).
Where two headings read alike, the source gives them in different places.

How the values were obtained:
androgen receptor = biological target: T1, androgen receptor (Homo sapiens, UniProt P10275); experiment: Co-transfection androgen antagonist assay (CV-1 cells, pRShAR, MTV-LUC reporter; AR-wt); assay type: cell-based; conditions: for IC50: read-out: Potency (IC50, concentration required to reduce the maximal response by 50%)
T1 construct: expressed in transfected cells; host or cells: CV-1 (monkey kidney fibroblast) cells, plasmid pRShAR, with reporter plasmid MTV-LUC
T1 sequence (P10275 1-920): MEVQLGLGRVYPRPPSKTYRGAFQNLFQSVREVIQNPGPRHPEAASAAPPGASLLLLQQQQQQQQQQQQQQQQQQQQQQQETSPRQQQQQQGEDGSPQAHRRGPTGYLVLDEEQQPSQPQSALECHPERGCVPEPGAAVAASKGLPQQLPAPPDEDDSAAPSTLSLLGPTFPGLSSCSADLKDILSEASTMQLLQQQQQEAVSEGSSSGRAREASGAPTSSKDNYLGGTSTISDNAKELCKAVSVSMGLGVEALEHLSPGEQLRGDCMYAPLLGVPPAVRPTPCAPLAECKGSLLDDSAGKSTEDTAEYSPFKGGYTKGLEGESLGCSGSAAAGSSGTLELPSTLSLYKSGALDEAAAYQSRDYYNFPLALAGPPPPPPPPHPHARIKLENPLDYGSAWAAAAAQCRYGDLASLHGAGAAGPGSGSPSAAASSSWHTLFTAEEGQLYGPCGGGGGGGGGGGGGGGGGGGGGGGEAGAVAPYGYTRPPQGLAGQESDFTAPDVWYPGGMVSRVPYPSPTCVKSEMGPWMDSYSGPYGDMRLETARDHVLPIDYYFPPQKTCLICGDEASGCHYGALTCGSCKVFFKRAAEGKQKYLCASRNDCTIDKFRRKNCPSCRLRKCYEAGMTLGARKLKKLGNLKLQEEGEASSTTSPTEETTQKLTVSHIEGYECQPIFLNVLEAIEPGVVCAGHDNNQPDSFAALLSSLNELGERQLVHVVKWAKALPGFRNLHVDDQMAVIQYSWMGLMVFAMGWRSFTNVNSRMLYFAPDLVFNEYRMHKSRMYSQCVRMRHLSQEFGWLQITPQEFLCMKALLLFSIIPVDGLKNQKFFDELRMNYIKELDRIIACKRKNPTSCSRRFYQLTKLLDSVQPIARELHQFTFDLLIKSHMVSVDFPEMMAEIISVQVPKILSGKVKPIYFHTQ
From the text: The co-transfection assay provides a method for identifying functional ligands (either agonists which mimic, or antagonists which inhibit, the effect of hormones), and quantifying their activity for ligand-responsive receptor proteins. In this regard, the co-transfection assay mimics an in vivo system in the laboratory. Importantly, activity in the co-transfection assay correlates very well with known in vivo activity, such that the co-transfection assay functions as a quantitative predicator of a tested compounds in vivo pharmacology. See, e.g., T. Berger et al. 41 J. Steroid Biochem. Molec.
(§1) In the co-transfection assay, a cloned gene for an intracellular receptor (e.g., androgen receptor) is introduced by transfection (a procedure to induce cells to take up foreign genes) into a background cell substantially devoid of endogenous intracellular receptors. This introduced gene directs the recipient cells to make the intracellular receptor protein. A second gene is also introduced (co-transfected) into the same cells in conjunction with the intracellular receptor gene. This second gene functions as a reporter for the transcription-modulating activity of the target intracellular receptor. Thus, the reporter acts as a surrogate for the products normally expressed by a gene under control of the target receptor and its natural hormone. A preferred reporter gene is one which expresses the firefly enzyme luciferase.
(§2) The co-transfection assay can detect small molecule agonists or antagonists of target intracellular receptors. Exposing the cells to an agonist ligand increases reporter activity in the transfected cells. This activity can be conveniently measured, e.g., by increasing luciferase production, which reflects ligand-dependent, intracellular receptor-mediated increases in reporter transcription. To detect antagonists, the co-transfection assay is carried out in the presence of a constant concentration of an agonist (e.g., for androgen receptor, dihydrotestosterone) known to induce a defined reporter signal. Increasing concentrations of a test antagonist will decrease the reporter signal (e.g., luciferase production). The co-transfection assay is therefore useful to detect both agonists and antagonists of specific intracellular receptors. It determines not only whether a compound interacts with a particular intracellular receptor, but whether this interaction mimics (agonizes) or blocks (antagonizes) the effects of the natural regulatory molecules on target gene expression, as well as the specificity and strength of this interaction.
Co-transfected cells are exposed to a medium to which is added the potential ligand (compound) that is being evaluated. If the candidate compound diffuses into the cell, binds to the receptor, and the resulting receptor complex functions as an agonist, it will subsequently bind to the co-transfected reporter gene and initiate transcription. Typically, the reporter gene is one that expresses luciferase, which is capable of catalyzing a light-emitting reaction with its substrate luciferin. Thus, after cell lysis and the introduction of luciferin, the amount of light produced relative to the concentration of candidate compound used in the assay provides a measure of the potency and efficacy of the compound tested. Antagonist activity is evaluated by adding the candidate ligand and a known agonist to the co-transfected cells. […]

[1] = test system: progesterone receptor (PR-TI); experiment: Antagonist activity on progesterone receptor, CV-1 cells cotransfected with pRShPR-B altered at Tau-1 (PR-TI); assay type: cell-based, human; conditions: Table 2, CV-1 cells PR-TI; for Efficacy, PR-TI (% maximal response): comparable to that found with RU-486; for IC50: read-out: Potency, PR-TI (IC50)
From the text: as §1, §2
Co-transfected cells are exposed to a medium to which is added the potential ligand (compound) that is being evaluated. If the candidate compound diffuses into the cell, binds to the receptor, and the resulting receptor complex functions as an agonist, it will subsequently bind to the co-transfected reporter gene and initiate transcription. Typically, the reporter gene is one that expresses luciferase, which is capable of catalyzing a light-emitting reaction with its substrate luciferin. Thus, after cell lysis and the introduction of luciferin, the amount of light produced relative to the concentration of candidate compound used in the assay provides a measure of the potency and efficacy of the compound tested. Antagonist activity is evaluated by adding the candidate ligand and a known agonist to the co-transfected cells.
The specific activity of Compounds A-J was compared relative to their antagonist activity on the human progesterone receptor (PR) utilizing CV-1 cells cotransfected with plasmid pRShPR-B, as altered at the Tau-1 location (e.g., PR-TI)[specifically, hPR-B was excised from the vector pGEM3Z (69 Cell 703 (1992)); the Tau-1 fragment of the gluccocorticoid receptor was inserted into hPR-B at the unique HincII site in the N-terminal region; a Bst EII to BST bI fragment spanning the Tau-1 insertion was then used to replace the corresponding region in pRShPR-B]. […] Potency or IC50 is as reported for AR-wt transfected CV-1 cells.

[2] = CV-1, Table 1, androgen antagonists, relative to 2-Hydroxy-flutamide, read-out: Efficacy (% maximal response relative to 2-Hydroxy-flutamide)
[3] = Table 2, CV-1 cells AR-wt, read-out: Efficacy, AR-wt

| Structure (SMILES) | Emax (androgen receptor; [2]) [%] | IC50 (androgen receptor; Table 1, androgen antagonists) [nM] | Emax (androgen receptor; [3]) [%] | Efficacy, PR-TI (% maximal response) [1] [%] | IC50 [1] [nM] |
| --- | --- | --- | --- | --- | --- |
| O=C1CCCCC1Cc1ccc([N+](=O)[O-])cc1 (stereo not shown) [G, 2-(4'-Nitrophenyl)methylcyclohexan-1-one] | 79 | 250 | 79 | 98 | 920 |
| C=C1C=CCC(C)(C)C1Cc1cc(OC)c(Br)cc1OC(C)=O (stereo not shown) [F] | 87 | 240 | 87 | 53 | 820 |
| C=C1[C@@H](Cc2cc(OC)c(Br)cc2O)C(C)(C)CC[C@@H]1O [B, (1S,3S)-1-Hydroxy-2-methylidene-3-(2'-hydroxy-4'-bromo-5'-methoxyphenyl)methyl-4,4-dimethylcyclohexane] | 85 | 180 | 85 | 98 | 865 |
| C=C1C=CC[C@@H](C)[C@@H]1Cc1cc(OC)c(Br)cc1OC(C)=O [L, (5R,6S)-1-Methylidene-6-(2'-acetoxy-4'-bromo-5'-methoxyphenyl)methyl-5-methylcyclohex-2-ene] | 88 | 370 | – | – | – |
| C=C1C=CCC(C)(C)C1Cc1ccc([N+](=O)[O-])c(C)c1 (stereo not shown) [T, 1-Methylidene-6-(3'-methyl-4'-nitrophenyl)methyl-5,5-dimethylcyclohex-2-ene] | 88 | 545 | – | – | – |
| COc1cc(C[C@@H]2CCCC[C@@]2(C)O)c(O)cc1Br (relative stereo) [Q, trans-1-Methyl-2-(2'-hydroxy-4'-bromo-5'-methoxyphenyl)methylcyclohexan-1-ol] | 94 | 460 | – | – | – |
| COc1cc(CC2CCCCC2=O)c(O)cc1Br (stereo not shown) [Y, 2-(2'-hydroxy-4'-bromo-5 '-methoxyphenyl)methylcyclohex-1-one] | 67 | 340 | – | – | – |
| O=[N+]([O-])c1ccc(C[C@@H]2CCCC[C@H]2O)cc1 (relative stereo) [I, trans-2-(4'-Nitrophenyl)methylcyclohexan-1-ol] | 85 | 290 | 85 | 99 | 360 |
| C=C1C=CCC(C)(C)C1Cc1ccccc1O (stereo not shown) [C, 1-Methylidene-6-(2'-hydroxyphenyl)methyl-5,5-dimethylcyclohex-2-ene] | 82 | 210 | 82 | 20 | > 10000 |
| C=C1C=CCC(C)(C)C1Cc1cc(OC)c(Br)cc1O (stereo not shown) [W, 1-Methylidene-6-(2'-hydroxy-4'-bromo-5'-methoxyphenyl)methyl-5,5-dimethylcyclo-hex-2-ene] | 89 | 610 | – | – | – |
| C=C1C=C(C)CC(C)(C)C1Cc1ccc([N+](=O)[O-])c(C)c1 (stereo not shown) [U, 1-Methylidene-6-(3'-methyl-4'-nitrophenyl)methyl-3,5,5-trimethylcyclohex-2-ene] | 69 | 565 | – | – | – |
| C=C1C[C@H](C)CC(C)(C)[C@@H]1Cc1cc(OC)c(Br)cc1O (relative stereo) [S, cis-1Methylidene-2-(2'-hydroxy-4'-bromo-5'-methoxyphenyl)methyl-3,3,5-trimethyl-cyclohexane] | 92 | 500 | – | – | – |
| C=C1CCC(C)(C)C1Cc1cc(OC)c(Br)cc1O (stereo not shown) [K, 1-Methylidene-2-(2'-hydroxy-4'-bromo-5'methoxyphenyl)methyl-3,3-dimethylcyclo-pentane] | 91 | 330 | – | – | – |
| C=C1[C@H](O)CCC(C)(C)[C@H]1Cc1cc(OC)c(Br)cc1O [R, (1R,3R)-1-Hydroxy-2-methylidene-3-(2'-hydroxy-4'-bromo-5'-methoxyphenyl)methyl-4,4-dimethylcyclohexane] | 70 | 500 | – | – | – |
| C=C1C=C(C)C[C@@H](C)[C@@H]1Cc1cc(OC)c(Br)cc1OC(C)=O [O, (5R,6S)-1-Methylidene-6-(2'-acetoxy-4'-bromo-5 '-methoxyphenyl)methyl-3,5-dimethyl-cyclohex-2-ene] | 78 | 390 | – | – | – |
| C=C1C=CC(Br)C(C)(C)[C@H]1Cc1cc(OC)c(Br)cc1OC(C)=O (stereo partly drawn) [E, (4S,6S)-1-Methylidene-4-bromo-5-(2'-acetoxy-4'-bromo-5'-methyoxyphenyl)methyl-5,5-dimethylcyclohex-2-ene] | 60 | 230 | 60 | 20 | > 10000 |
| COc1cc(CC2C(C)(C)CC(C)=CC23CC3)c(OC(C)=O)cc1Br (stereo not shown) [H, 8-(2'-Acetoxy-4'-bromo-5 '-methoxyphenyl)methyl-5,7,7-trimethylspiro[2.51]oct-4-ene] | 89 | 250 | 89 | 26 | 160 |
| C=C1[C@@H](Cc2cc(OC)c(Br)cc2O)C(C)(C)CC[C@]1(C)O [J, (1S,3S)-1-Hydroxy-2-methylidene-3-(2'-hydroxy-4'-bromo-5'-methoxyphenyl)methyl-1,4,4-trimethylcyclohexane] | 85 | 300 | 85 | 95 | 850 |
| C=C1[C@@H](Cc2cc(OC)c(Br)cc2O)C(C)(C)CC[C@@]1(C)O [P, (1R,3S)-1-Hydroxy-2-methylidene-3-(2'-hydroxy-4'-bromo-5'-methoxyphenyl)methyl-1,4,4-trimethylcyclohexane] | 88 | 420 | – | – | – |
| CC1(C)CCCC(=O)C1Cc1ccc([N+](=O)[O-])cc1 (stereo not shown) [V, 2-(4'-Nitrophenyl)methyl-3.3-dimethylcyclohexan-1-one] | 85 | 590 | – | – | – |
